Converted amounts (≈) assume the structure as drawn. Where a SMILES comes first, the peptide text is derived from it. Bridges are numbered along the chain shown (N, C = ends). Roman numbers before positions name the chains, in order. Where no end group is shown, it is not given here. [ ]: non-standard residue; d: D form. Hyp = O=C(O)[C@@H]1C[C@@H](O)CN1; NMeL = CN[C@@H](CC(C)C)C(=O)O; Orn = NCCC[C@H](N)C(=O)O; Dab = NCC[C@H](N)C(=O)O
Assays:
[1] = tested on: B. subtilis 347; format: cell-based, Bactillus subtillis; settings: 347, 20 h
Summary of the method: (§1)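 Two-fold serial dilution in 1% TSB, final 125 μg/mL to 60 ng/mL; inoculum 5×10^6 CFU/mL (before 1:1 mixing with peptide). Incubated 20 hrs at 37° C., growth read as absorbance at 595 nm, in triplicate with sterile water as negative control.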

[2] = tested on: E. coli D31; format: cell-based, Escherichia coli; settings: D31, 20 h
Summary of the method: (§2)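 Bacteria grown overnight in nutrient broth at 37° C were diluted to 5×10^6 CFU/mL in 1% TSB and exposed to peptides serially halved from 125 μg/mL to 60 ng/mL final. After 20 h at 37° C, A595 gave the MIC, measured in triplicate.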

[3] = tested on: K. Pneumonia 123132; experiment: Growth inhibition assay (MIC); format: cell-based, Klebsiella pneumoniae; settings: multidrug resistant strain; 1% TSB, 37° C., 20 hrs
Summary of the method: as §2

[4] = tested on: K. Pneumonia K6, ATCC 700603; experiment: Growth inhibition assay (MIC); format: cell-based, Klebsiella pneumoniae; settings: multidrug resistant strain; 1% TSB, 37° C., 20 hrs
Summary of the method: as §2

[5] = tested on: S. enterica subsp. Enterica serovar. typhi G10215 ATCC 700408; format: cell-based, Salmonella enterica; settings: ATCC 700408, 20 h
Summary of the method: as §2

[6] = tested on: K. pneumonia 681; format: cell-based, Klebsiella pneumoniae; settings: 20 h
Summary of the method: as §1

[7] = tested on: R. radiobatter ATCC 15955; experiment: Growth inhibition assay (MIC); format: cell-based, Rhizobium radiobacter; settings: multidrug resistant strain; 1% TSB, 37° C., 20 hrs
Procedure: The minimal inhibition concentrations (MIC) of the apidaecin-derived peptides and peptide-derivatives were determined by a growth inhibition assay using a serial peptide dilution in sterilized round-bottom 96-well plates (polystyrene, U-bottom, Greiner Bio-One GmbH) with a final volume of 100 μL per well. The bacteria, e.g., E. coli BL21 A1, were grown in nutrient broth (NB, Carl Roth GmbH+Co. KG, Karlsruhe, Germany) at 37° C. over night. To each well of the 96-well plate, 50 μL of the overnight culture adjusted to 5×10^6 CFU/mL in 1% TSB were added. Lyophilized peptides and peptidomimetics were dissolved in 1% TSB (tryptic soy broth) or water to give a final concentration of 250 μg/mL. Fifty μL of the peptide or peptidomimetics solution were added to the first well of a row on the plate and mixed. Fifty μL of the first well containing the peptide solution were transferred to the second well, mixed and again 50 μL transferred to the next well and so on. Thereby, a two-fold dilution series was obtained starting at 250 μg/mL in the first well down to 120 ng/mL in the 12th well of a row giving a final peptide or peptidomimetics concentration from 125 μg/mL (well 1) to 60 ng/mL (well 12). Plates were incubated at 37° C. for 20 hrs. The absorbance was measured at 595 nm using a TECAN micro plate spectrophotometer (Tecan, Germany). All peptides and peptidomimetics were measured in triplicates. Sterilized water was used as a negative control.
The following multidrug resistant bacteria strains were tested: • Eschericha coli 45849 and D31, • Klebsiella pneumoniae 123132 and K6, • Salmonella typhi S5 and Salmonella enterica subsp. enterica serovar Typhimurium (ATCC 700408), • Rhizobium radiobacter (ATCC 15955 deposited as Agrobacterium tumefaciens).

[8] = tested on: E. coli 10233; format: cell-based, Escherichia coli; settings: 10233, 20 h
Summary of the method: as §1

[9] = tested on: E. coli 1103; format: cell-based, Escherichia coli; settings: 1103, 20 h
Summary of the method: as §1

[10] = tested on: S. typhi S5; format: cell-based, Salmonella typhi; settings: S5, 20 h
Summary of the method: as §2

[11] = tested on: E. coli 45849; experiment: Growth inhibition assay (MIC); format: cell-based, Escherichia coli; settings: multidrug resistant strain; 1% TSB, 37° C., 20 hrs
Summary of the method: as §2

[12] = tested on: E. coli BL 21 AI; experiment: Growth inhibition assay (MIC); format: cell-based, Escherichia coli; settings: 1% TSB, 37° C., 20 hrs
Summary of the method: as §1

[13] = tested on: M. luteus ATCC 10240; format: cell-based, Micrococcus luteus; settings: ATCC 10240, 20 h
Summary of the method: as §1

[14] = in vitro; format: in vitro ADME, mouse; settings: 25% aqueous mouse serum, 37° C.; read-out: Half-life time
Summary of the method: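 Peptide or peptidomimetic (0.5 mg/mL aqueous stock) incubated in 25% pooled mouse serum at 37 °C, sampled at 0–6 h, in duplicate. Proteins precipitated with 15% TCA; supernatants neutralized and analyzed by RP-HPLC with 0.1% TFA. Degradation products identified by MALDI-TOF/TOF-MS.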

Compound: CC[C@H](C)[C@H](NC(=O)[C@H](Cc1ccc(O)cc1)NC(=O)[C@@H](NC(=O)[C@@H]1CCCN1C(=O)[C@H](CCCNC(=N)N)NC(=O)[C@H](CC(N)=O)NC(=O)[C@H](CC(N)=O)NC(=O)[C@H](CCCN)NC(C)=O)C(C)C)C(=O)N1CCC[C@H]1C(=O)N[C@@H](CCCNC(=N)N)C(=O)N1C[C@H](O)C[C@H]1C(=O)N[C@@H](CCCNC(=N)N)C(=O)N1CCC[C@H]1C(=O)N1CCC[C@H]1C(=O)N[C@@H](Cc1c[nH]cn1)C(=O)N1CCC[C@H]1C(=O)N[C@@H](CCCNC(=N)N)C(=O)N[C@@H](CC(C)C)C(N)=O [compound 40] (Ac-[Orn]NNRPVYIPR[Hyp]RPPHPRL-NH2)
- MIC B. subtilis 347 [1]: 125 µg/mL (≈ 55.5 µM)
- MIC E. coli D31 [2]: 8 µg/mL (≈ 3.55 µM)
- MIC K. Pneumonia 123132 [3]: 4 µg/mL (≈ 1.78 µM)
- MIC K. Pneumonia K6, ATCC 700603 [4]: 16 µg/mL (≈ 7.11 µM)
- MIC S. enterica subsp. Enterica serovar. typhi G10215 ATCC 700408 [5]: 4 µg/mL (≈ 1.78 µM)
- MIC K. pneumonia 681 [6]: 3.91 µg/mL (≈ 1.74 µM)
- MIC R. radiobatter ATCC 15955 [7]: 0.33 µg/mL (≈ 0.147 µM)
- MIC E. coli 10233 [8]: 1.95 µg/mL (≈ 0.866 µM)
- MIC E. coli 1103 [9]: 3.91 µg/mL (≈ 1.74 µM)
- MIC S. typhi S5 [10]: <0.5 µg/mL
- MIC E. coli 45849 [11]: 1 µg/mL (≈ 0.444 µM)

Compound: CC[C@H](C)[C@H](NC(=O)[C@H](Cc1ccc(O)cc1)NC(=O)[C@@H](NC(=O)[C@@H]1CCCN1C(=O)[C@H](CCCNC(=N)N)NC(=O)[C@H](CC(N)=O)NC(=O)[C@H](CC(N)=O)NC(=O)[C@@H](N)CCCN)C(C)C)C(=O)N1CCC[C@H]1C(=O)N[C@@H](CCCNC(=N)N)C(=O)N1C[C@H](O)C[C@H]1C(=O)N[C@@H](CCCNC(=N)N)C(=O)N1CCC[C@H]1C(=O)N1CCC[C@H]1C(=O)N[C@@H](Cc1c[nH]cn1)C(=O)N1CCC[C@H]1C(=O)N[C@@H](CCCNC(=N)N)C(=O)N[C@@H](CC(C)C)C(N)=O [compound 45] (H-[Orn]NNRPVYIPR[Hyp]RPPHPRL-NH2)
- MIC B. subtilis 347 [1]: 62.5 µg/mL (≈ 28.3 µM)
- MIC E. coli D31 [2]: 8 µg/mL (≈ 3.62 µM)
- MIC K. Pneumonia 123132 [3]: 4 µg/mL (≈ 1.81 µM)
- MIC K. Pneumonia K6, ATCC 700603 [4]: 4 µg/mL (≈ 1.81 µM)
- MIC S. enterica subsp. Enterica serovar. typhi G10215 ATCC 700408 [5]: 2 µg/mL (≈ 0.906 µM)
- MIC K. pneumonia 681 [6]: 7.81 µg/mL (≈ 3.54 µM)
- MIC R. radiobatter ATCC 15955 [7]: 0.65 µg/mL (≈ 0.294 µM)
- MIC E. coli 10233 [8]: 1.95 to 3.91 µg/mL
- MIC E. coli 1103 [9]: 7.81 µg/mL (≈ 3.54 µM)
- MIC S. typhi S5 [10]: <0.5 µg/mL
- MIC E. coli 45849 [11]: 1 µg/mL (≈ 0.453 µM)

Compound: CC[C@H](C)[C@H](NC(=O)[C@H](Cc1ccc(O)cc1)NC(=O)[C@@H](NC(=O)[C@@H]1CCCN1C(=O)[C@H](CCCNC(=N)N)NC(=O)[C@H](CC(N)=O)NC(=O)[C@H](CC(N)=O)NC(=O)CN)C(C)C)C(=O)N1CCC[C@H]1C(=O)N[C@@H](CCC(N)=O)C(=O)N1CCC[C@H]1C(=O)N[C@@H](CCCNC(=N)N)C(=O)N1CCC[C@H]1C(=O)N1CCC[C@H]1C(=O)N[C@@H](Cc1c[nH]cn1)C(=O)N1CCC[C@H]1C(=O)N[C@@H](CCCNC(=N)N)C(=O)N(C)[C@@H](CC(C)C)C(N)=O [compound 33] (H-GNNRPVYIPQPRPPHPR[NMeL]-NH2)
- MIC B. subtilis 347 [1]: >125 µg/mL
- MIC E. coli D31 [2]: 32 µg/mL (≈ 15.1 µM)
- MIC K. Pneumonia K6, ATCC 700603 [4]: >128 µg/mL
- MIC S. enterica subsp. Enterica serovar. typhi G10215 ATCC 700408 [5]: 8 µg/mL (≈ 3.77 µM)
- MIC K. pneumonia 681 [6]: >125 µg/mL
- MIC E. coli BL 21 AI [12]: 15.63 µg/mL (≈ 7.37 µM)
- MIC E. coli 10233 [8]: 15.63 µg/mL (≈ 7.37 µM)
- MIC E. coli 1103 [9]: 62.5 µg/mL (≈ 29.5 µM)
- MIC M. luteus ATCC 10240 [13]: 31.25 µg/mL (≈ 14.7 µM)

Compound: CC[C@H](C)[C@H](NC(=O)[C@H](Cc1ccc(O)cc1)NC(=O)[C@@H](NC(=O)[C@@H]1CCCN1C(=O)[C@H](CCCNC(=N)N)NC(=O)[C@H](CC(N)=O)NC(=O)[C@H](CC(N)=O)NC(=O)[C@H](CCCN)NC(C)=O)C(C)C)C(=O)N1CCC[C@H]1C(=O)N[C@@H](CCCNC(=N)N)C(=O)N1CCC[C@H]1C(=O)N[C@@H](CCCNC(=N)N)C(=O)N1CCC[C@H]1C(=O)N1CCC[C@H]1C(=O)N[C@@H](Cc1c[nH]cn1)C(=O)N1CCC[C@H]1C(=O)N[C@@H](CCCNC(=N)N)C(=O)N[C@@H](CC(C)C)C(=O)NCC[C@H](NC(=O)[C@H](CC(C)C)NC(=O)[C@H](CCCNC(=N)N)NC(=O)[C@@H]1CCCN1C(=O)[C@H](Cc1c[nH]cn1)NC(=O)[C@@H]1CCCN1C(=O)[C@@H]1CCCN1C(=O)[C@H](CCCNC(=N)N)NC(=O)[C@@H]1CCCN1C(=O)[C@H](CCCNC(=N)N)NC(=O)[C@@H]1CCCN1C(=O)[C@@H](NC(=O)[C@H](Cc1ccc(O)cc1)NC(=O)[C@@H](NC(=O)[C@@H]1CCCN1C(=O)[C@H](CCCNC(=N)N)NC(=O)[C@H](CC(N)=O)NC(=O)[C@H](CC(N)=O)NC(=O)[C@H](CCCN)NC(C)=O)C(C)C)[C@@H](C)CC)C(=O)O [compound 83] (I: Ac-[Orn]NNRPVYIPRPRPPHPRL[Dab]-OH / II: Ac-[Orn]NNRPVYIPRPRPPHPRL; amide I:19-II:C)
- MIC B. subtilis 347 [1]: 15.6 µg/mL (≈ 3.43 µM)
- MIC E. coli D31 [2]: 2 µg/mL (≈ 0.439 µM)
- MIC K. Pneumonia 123132 [3]: 8 µg/mL (≈ 1.76 µM)
- MIC K. Pneumonia K6, ATCC 700603 [4]: 8 µg/mL (≈ 1.76 µM)
- MIC S. enterica subsp. Enterica serovar. typhi G10215 ATCC 700408 [5]: 4 µg/mL (≈ 0.878 µM)
- MIC K. pneumonia 681 [6]: 125 µg/mL (≈ 27.5 µM)
- half-life [14]: 15 min
- MIC E. coli BL 21 AI [12]: 1.95 µg/mL (≈ 0.428 µM)
- MIC E. coli 10233 [8]: 31.25 µg/mL (≈ 6.86 µM)
- MIC S. typhi S5 [10]: 4 µg/mL (≈ 0.878 µM)
- MIC M. luteus ATCC 10240 [13]: 1.95 µg/mL (≈ 0.428 µM)
- MIC E. coli 45849 [11]: 8 µg/mL (≈ 1.76 µM)

Compound: GNNRPVYIPQPRPPHPRL [compound 2]
- MIC B. subtilis 347 [1]: >125 µg/mL
- MIC E. coli D31 [2]: 32 µg/mL
- MIC K. Pneumonia K6, ATCC 700603 [4]: 64 µg/mL
- MIC S. enterica subsp. Enterica serovar. typhi G10215 ATCC 700408 [5]: 2 µg/mL
- MIC K. pneumonia 681 [6]: 62.5 µg/mL
- MIC E. coli BL 21 AI [12]: 0.98 µg/mL
- MIC E. coli 10233 [8]: 1.95 µg/mL
- MIC E. coli 1103 [9]: 7.81 µg/mL
- MIC M. luteus ATCC 10240 [13]: 31.25 µg/mL

Source: patent US20150315241A1, “Antibiotic Peptides” (priority 2007, published 2015)
